Measured values published in US11635434B2, “Betaretrovirus epitopes and related methods of use” (priority 2018, dated 2023).

Test system: intrahepatic lymphocytes (IHL)
Assay: IFN-γ ELISPOT of intrahepatic lymphocytes stimulated with individual HBRV peptides
Type: cell-based, human
Description: We isolated intrahepatic lymphocytes (IHL) to increase the likelihood of finding HBRV reactive lymphocytes (FIG. 3). IHL were extracted from 5 PBC subjects and 4 LT controls, as described^58 (FIG. 4B). ELISPOT was employed to detect IFN-γ spot forming colonies (SFC) using 100,000 IHL per reaction. Individual peptides from HBRV GAG and Env (immunosuppressive domains (ISD) peptides removed) were used to perform 140 analyses per sample with […] as positive and no stimulus as negative control. We found 15 GAG and 21 Env peptides that produced SFC above background levels (FIG. 6A).
Cellular immune responses have been found using pooled peptides of the HBRV Gag (n=58) and Env (n=85) proteins. […] In order to characterize immunodominant HBRV epitopes, we screened intra-hepatic lymphocytes (IHL) from PBC subjects and control subjects for evidence of IFNg production. Methods: IHL were isolated from liver transplant recipients with PBC (n=5) and other hepatic disorders (n=4). IHL were individually stimulated with 15-mer peptides from HBRV Gag or Env proteins (n=144) or the characterized CD8+ reactive epitope to pyruvate dehydrogenase-E2 (PDH-E2). ELISpot was used to measure spot forming colonies (SFC) producing IFN-g.

Sequence: TIYLGGSPDFHGFRNMSG [Env 17]
- number of PBC subjects whose IHL were reactive (IFN-γ producing) (5 PBC subjects): 1
- SFC level in the reactive PBC subject's IHL (FIG. 6A): < 50 SFC
